Assay results: US20210228545A1, “METHODS OF TREATING CONDITIONS RELATED TO THE S1P1 RECEPTOR” (Arena Pharmaceuticals, Inc., priority 2018, published 2021)

How the values were obtained:
UGT1A1 = molecular target: T1, UGT1A1 (Homo sapiens, UniProt P22309); test: Direct inhibition of UGT activity in human liver microsomes; format: in vitro ADME; conditions: highest concentration tested (10 μM)
T1 construct: human liver microsomes from a pool of 200 individuals; from tissue; host or cells: human liver microsomes, pool of 200 individuals
T1 sequence (P22309 26-533): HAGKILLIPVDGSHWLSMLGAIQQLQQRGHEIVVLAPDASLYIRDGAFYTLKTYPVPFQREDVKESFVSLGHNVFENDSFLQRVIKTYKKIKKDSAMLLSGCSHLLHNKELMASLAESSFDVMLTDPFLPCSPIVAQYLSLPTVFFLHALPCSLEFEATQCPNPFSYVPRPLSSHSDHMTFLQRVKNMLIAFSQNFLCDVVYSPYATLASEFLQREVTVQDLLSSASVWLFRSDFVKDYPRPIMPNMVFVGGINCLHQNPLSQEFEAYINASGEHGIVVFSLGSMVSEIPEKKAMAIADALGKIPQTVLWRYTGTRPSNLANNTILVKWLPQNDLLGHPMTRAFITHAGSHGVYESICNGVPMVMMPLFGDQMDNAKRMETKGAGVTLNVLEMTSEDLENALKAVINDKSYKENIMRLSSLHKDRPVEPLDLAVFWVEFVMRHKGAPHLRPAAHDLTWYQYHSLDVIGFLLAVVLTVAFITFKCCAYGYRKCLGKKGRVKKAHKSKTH
Description: (§1) Known metabolism-dependent and/or direct inhibitors of CYP and UGT enzymes were included as positive controls, as applicable.

UGT1A6 = molecular target: T2, UGT1A6 (Homo sapiens, UniProt P19224); test: as above; format: in vitro ADME; conditions: highest concentration tested (10 μM)
T2 construct: human liver microsomes from a pool of 200 individuals; from tissue; host or cells: human liver microsomes, pool of 200 individuals
T2 sequence (P19224 27-532): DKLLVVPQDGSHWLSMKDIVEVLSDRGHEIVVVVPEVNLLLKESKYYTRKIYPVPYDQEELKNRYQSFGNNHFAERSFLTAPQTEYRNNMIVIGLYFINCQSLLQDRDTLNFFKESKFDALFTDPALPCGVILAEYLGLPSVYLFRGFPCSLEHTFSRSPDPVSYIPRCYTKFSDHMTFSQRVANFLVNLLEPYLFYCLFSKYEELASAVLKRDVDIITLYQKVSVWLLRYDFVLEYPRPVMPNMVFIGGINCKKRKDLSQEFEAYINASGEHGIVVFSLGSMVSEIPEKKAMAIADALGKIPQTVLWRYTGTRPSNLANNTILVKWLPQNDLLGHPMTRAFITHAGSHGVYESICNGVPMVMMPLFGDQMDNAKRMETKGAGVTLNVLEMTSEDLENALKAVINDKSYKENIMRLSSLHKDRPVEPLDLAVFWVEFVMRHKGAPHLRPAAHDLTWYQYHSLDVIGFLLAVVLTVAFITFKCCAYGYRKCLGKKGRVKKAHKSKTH
Description: as §1

OATP1B3 [1] = molecular target: T3, OATP1B3 (Homo sapiens, UniProt Q9NPD5); test: Transporter inhibition, HEK293 cells; format: in vitro ADME
T3 construct: expressed in transfected cells; host or cells: HEK293
T3 sequence (Q9NPD5 1-702): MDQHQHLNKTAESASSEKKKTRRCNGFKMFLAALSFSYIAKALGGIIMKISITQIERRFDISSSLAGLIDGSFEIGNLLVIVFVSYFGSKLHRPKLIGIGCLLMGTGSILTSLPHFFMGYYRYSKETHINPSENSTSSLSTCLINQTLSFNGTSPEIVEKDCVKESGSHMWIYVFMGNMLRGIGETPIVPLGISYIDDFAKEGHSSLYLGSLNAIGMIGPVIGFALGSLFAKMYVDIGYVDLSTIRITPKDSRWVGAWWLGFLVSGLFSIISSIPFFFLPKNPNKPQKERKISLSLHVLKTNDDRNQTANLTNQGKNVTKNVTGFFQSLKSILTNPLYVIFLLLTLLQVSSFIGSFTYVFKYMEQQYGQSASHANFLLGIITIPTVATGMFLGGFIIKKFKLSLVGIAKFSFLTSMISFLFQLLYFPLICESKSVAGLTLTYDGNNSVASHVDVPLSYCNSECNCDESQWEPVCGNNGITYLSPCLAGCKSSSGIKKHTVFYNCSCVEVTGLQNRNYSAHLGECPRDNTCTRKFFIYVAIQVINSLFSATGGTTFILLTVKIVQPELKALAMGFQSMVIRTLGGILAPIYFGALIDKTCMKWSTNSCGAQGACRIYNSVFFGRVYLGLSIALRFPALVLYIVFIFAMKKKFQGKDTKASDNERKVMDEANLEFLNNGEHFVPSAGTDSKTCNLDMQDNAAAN

OAT3 = molecular target: T4, OAT3 (Homo sapiens, UniProt Q8TCC7); test: Transporter substrate evaluation, HEK293 cells; format: in vitro ADME; conditions: 1 and 10 μM
T4 construct: expressed in transfected cells; host or cells: HEK293
T4 sequence (Q8TCC7 1-542): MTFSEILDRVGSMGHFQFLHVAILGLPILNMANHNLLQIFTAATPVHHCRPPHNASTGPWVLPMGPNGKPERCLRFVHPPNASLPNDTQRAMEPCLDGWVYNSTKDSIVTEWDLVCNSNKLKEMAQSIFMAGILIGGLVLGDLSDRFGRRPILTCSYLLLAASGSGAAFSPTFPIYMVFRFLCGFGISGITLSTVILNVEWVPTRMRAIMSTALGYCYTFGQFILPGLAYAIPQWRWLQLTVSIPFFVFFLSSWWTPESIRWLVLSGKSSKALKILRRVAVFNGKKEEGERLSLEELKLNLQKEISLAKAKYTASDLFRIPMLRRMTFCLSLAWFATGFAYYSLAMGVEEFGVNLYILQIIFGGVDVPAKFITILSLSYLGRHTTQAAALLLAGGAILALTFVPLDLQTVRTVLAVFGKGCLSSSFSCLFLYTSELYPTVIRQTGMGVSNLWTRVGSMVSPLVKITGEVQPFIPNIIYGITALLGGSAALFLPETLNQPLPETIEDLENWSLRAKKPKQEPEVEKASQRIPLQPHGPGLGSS

OCT2 = molecular target: T5, OCT2 (Homo sapiens, UniProt O15244); test: Transporter substrate evaluation, HEK293 cells; format: in vitro ADME; conditions: 1 and 10 μM
T5 construct: expressed in transfected cells; host or cells: HEK293
T5 sequence (O15244 1-555): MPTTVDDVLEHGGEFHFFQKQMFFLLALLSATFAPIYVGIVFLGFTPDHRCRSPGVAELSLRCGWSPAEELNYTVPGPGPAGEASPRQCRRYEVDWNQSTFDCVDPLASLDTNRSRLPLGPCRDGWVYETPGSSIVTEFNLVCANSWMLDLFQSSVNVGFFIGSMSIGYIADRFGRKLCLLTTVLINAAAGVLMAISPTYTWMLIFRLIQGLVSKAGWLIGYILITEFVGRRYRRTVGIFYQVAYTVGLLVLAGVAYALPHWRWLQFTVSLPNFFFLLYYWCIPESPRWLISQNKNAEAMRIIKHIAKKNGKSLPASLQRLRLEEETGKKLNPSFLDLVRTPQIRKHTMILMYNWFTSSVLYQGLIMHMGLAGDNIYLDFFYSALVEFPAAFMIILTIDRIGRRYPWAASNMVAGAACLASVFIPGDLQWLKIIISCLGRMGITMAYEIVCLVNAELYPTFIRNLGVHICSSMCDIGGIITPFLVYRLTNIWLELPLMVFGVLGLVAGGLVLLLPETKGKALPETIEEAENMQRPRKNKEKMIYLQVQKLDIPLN

OATP1B3 [2] = molecular target: T3, OATP1B3; test: Transporter substrate evaluation, HEK293 cells; format: in vitro ADME; conditions: 1 and 10 μM
OAT1 = molecular target: T6, OAT1 (Homo sapiens, UniProt Q4U2R8); test: Transporter inhibition, HEK293 cells; format: in vitro ADME
T6 construct: expressed in transfected cells; host or cells: HEK293
T6 sequence (Q4U2R8 1-563): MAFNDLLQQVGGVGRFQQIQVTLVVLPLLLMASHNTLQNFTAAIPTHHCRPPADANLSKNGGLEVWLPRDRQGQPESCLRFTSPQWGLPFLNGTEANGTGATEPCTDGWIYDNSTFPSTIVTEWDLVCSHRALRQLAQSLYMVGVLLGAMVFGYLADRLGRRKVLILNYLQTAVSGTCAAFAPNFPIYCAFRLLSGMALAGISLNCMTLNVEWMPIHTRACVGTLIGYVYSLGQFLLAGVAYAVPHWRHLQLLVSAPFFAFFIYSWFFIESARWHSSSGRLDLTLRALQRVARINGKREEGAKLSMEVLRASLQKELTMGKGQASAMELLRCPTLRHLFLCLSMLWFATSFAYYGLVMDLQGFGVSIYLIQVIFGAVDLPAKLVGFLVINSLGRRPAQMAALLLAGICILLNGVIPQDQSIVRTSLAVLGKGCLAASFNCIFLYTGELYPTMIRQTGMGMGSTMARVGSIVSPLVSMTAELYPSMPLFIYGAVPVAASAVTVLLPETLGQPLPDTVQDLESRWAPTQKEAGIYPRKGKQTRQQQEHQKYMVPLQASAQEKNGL

[3] = In vitro metabolism studies and human mass balance clinical study; format: in vivo; conditions: oxidative (CYP2C8, CYP2C9) and conjugation (UGT1A7, minor UGT1A1, UGT1A4) pathways
Description: Compound 1 is eliminated from the systemic circulation mainly due to metabolism and biliary/fecal excretion.

O=C(O)C[C@H]1CCc2c1[nH]c1ccc(OCc3ccc(C4CCCC4)c(C(F)(F)F)c3)cc21 [Compound 1, (R)-2-(7-(4-cyclopentyl-3-(trifluoromethyl)benzyloxy)-1,2,3,4-tetrahydrocyclopenta[b]indol-3-yl)acetic acid]
inhibition at 10 µM (UGT1A1): ≤ 28% | inhibition at 10 µM (UGT1A6): ≤ 48% | Reduction of uptake rate of estradiol-17β-glucuronide into OATP1B3-expressing cells (inhibition) (OATP1B3 [1]; 1 and 10 μM): less than 50% | IC50 (OATP1B3 [1]; HEK293 cells, [3H]-estradiol-17β-glucuronide (50 nM), 1 and 10 μM tested): > 10 µM | Potential substrate of OAT3 (OAT3; HEK293 cells): not a substrate of OAT3 and not a substrate and No | Uptake ratio into OAT3-expressing cells (OAT3; absence and presence of probenecid (100 μM)): below two | Potential substrate of OCT2 (OCT2; HEK293 cells): not a substrate of OCT2 and not a substrate and No | Uptake ratio into OCT2-expressing cells (OCT2; absence and presence of quinidine (300 μM)): below two | Potential substrate of OATP1B3 (OATP1B3 [2]; HEK293 cells): not a substrate of OATP1B3 and not a substrate and No | Uptake ratio into OATP1B3-expressing cells (OATP1B3 [2]; absence and presence of rifampin): less than two | Reduction of uptake rate of p-aminohippurate into OAT1-expressing cells (inhibition) (OAT1; 1 and 10 μM): less than 50% | IC50 (OAT1; HEK293 cells, [3H]-p-aminohippurate (1 μM), 1 and 10 μM tested): > 10 µM | Extent of metabolism (overall) [3]: > 25%
